Experimental findings from article PMC7156458, “Synthetic biology based construction of biological activity-related library of fungal decalin-containing diterpenoid pyrones” (Nature Communications, 2020) are described below.

The subject of assay [1] is ALDH-positive cells in MCF-7 cells. The assay can be described thus: ALDH-positive cell population (ALDEFLUOR, flow cytometry). The class given is cell-based, human. To be noted: MCF-7, 1 μM; for ALDH-positive cells ave (fold) / ALDH-positive cells ave / ALDH-positive cells (%): 3 days; for ALDH-positive cells ave (fold): control = 1; for ALDH-positive cells ave: mean of 3, control 1.4; for ALDH-positive cells (%): single replicates. How it is done: We also evaluated antiproliferative activity against cancer stem cells (CSCs), which are a small sub-population in tumour bulk identified in most cancer cells and clinical samples[52]. CSCs have been a major problem in cancer therapy because they are responsible for recurrence, metastasis and drug resistance to chemotherapeutic agents that affect proliferative cells[53]–[56]. Anti-CSC activity was evaluated by the inhibition of sphere-forming ability, a well-studied method to enrich the CSC-like population, and selective cytotoxicity against one of the most reliable CSC markers, aldehyde dehydrogenase (ALDH)-positive cells. […] Low-toxicity 16 was also added as a negative control. […] We next evaluated the three DDPs that inhibited mammosphere formations against ALDH-positive cells, a functional marker for breast CSCs. MCF-7 cells were treated with 1 μM of 11, 12 or 22, and the ALDH-positive cell population was analysed by using a fluorescence activated cell sorter (Supplementary Fig. 46b). […] Thus, for the first time, we successfully found DDPs with potent antiproliferative effects on the CSC-like population in MCF-7 cells, which may lead to new anti-CSC drugs.
Fig. 5 DDPs show anti-CSC activity in breast cancer cell line MCF-7. a Effect of DDPs on mammosphere formation. After the cells were cultured in the presence of 5 μM DDPs for 7 days, the number of mammospheres was microscopically counted and the percentage of mammosphere-forming cells was determined as mammosphere-forming efficiency (MFE; %). Data represent mean ± s.d. from three independent replicate experiments. P-values were calculated by a two-sided unpaired Student’s t-test, compared with control. b Micrographs show representative images of mammosphere formation from three independent replicate experiments using compound 11, 12, 16, 22. The scale bar, […]. c Effect of DDPs (1 μM, 3 days) on ALDH-positive cells in MCF-7 cells. Data represent mean ± s.d. from three independent replicate experiments. P-values were calculated by a two-sided unpaired Student’s t-test, compared with control. d Dose-dependent effect of compound 12 on ALDH-positive cells in MCF-7 cells. Data represent mean ± s.d. from three independent replicate experiments. P-values were calculated by a two-sided unpaired Student’s t-test. Source data underlying Fig. 5a, c, d are provided in a Source Data file.
!" ' ' '! !" ' ' '! !" ' ' '!!" ' ' '!!" ' ' '!!" ' ' '!!" ' ' '!!" ' ' '! !" ' ' '! !" ' ' '! !" ' ' '! !"#$ ( % ) * '! '' '# '+ '$ '( '% […]
Main population Single cells Single cells
(negative control) Without DEAB […]
P-values are calculated using a two-sided unpaired Student’s t-test; * p < 0.05, ** p < 0.01, compared with control. b, Gating strategy of flow cytometry analysis for detecting ALDH-positive cells. All samples were analyzed by sequential gating including main population (G1), single cells (G2, G3). Negative control with DEAB was used to establish G4 (ALDH-negative cells) and G5 (ALDH-positive cells). […]
Policy information about cell lines […]
were distributed from National Cancer Institute (Frederick, MD). HT-29, MCF-7, DU-145 and PC-3 were purchased from […]
For orientation: In flow cytometry, cells or beads pass a laser one at a time.

Assay [2] deals with HBC-4. Kind of assay: cells. Further details: species or system JFCR39 human cancer cell lines; JFCR39 panel growth inhibition, sulforhodamine B total protein after 48 h. To be noted: for GI50: HBC4, 48 h. Summed up: (§1)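 GI50 values derive from sulforhodamine B measurement of total cellular protein after 48 hours of treatment, run in duplicate. Cells of the 39-line JFCR39 panel grew in RPMI-1640 containing 5% fetal bovine serum at 37°C under 5% CO2.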

For assay [3], the system named is LOX-IMVI. Kind of assay: cells. Particulars: 48 h; for GI50: Homo sapiens, LOX IMVI. Details: species or system JFCR39 human cancer cell lines; JFCR39 panel growth inhibition, sulforhodamine B total protein after 48 h. Put shortly:
as §1

In assay [4] the test system is OVCAR-4. Kind of assay: cells. Particulars: for GI50: Homo sapiens, OVCAR-4, 48 h. Details: species or system JFCR39 human cancer cell lines; JFCR39 panel growth inhibition, sulforhodamine B total protein after 48 h. Summed up: as §1
Assay [5] concerns RXF-631L. Kind of assay: cells. Details: species or system JFCR39 human cancer cell lines; JFCR39 panel growth inhibition, sulforhodamine B total protein after 48 h. To be noted: 48 h; for GI50: RXF-631L. Put shortly:
as §1

Assay [6] deals with A549. The assay can be described thus: cells. Further details: species or system JFCR39 human cancer cell lines; JFCR39 panel growth inhibition, sulforhodamine B total protein after 48 h. To be noted: for GI50: Homo sapiens, A549, 48 h. Put shortly: as §1
The subject of assay [7] is MDA-MB-231. The assay can be described thus: cells. Further details: species or system JFCR39 human cancer cell lines; JFCR39 panel growth inhibition, sulforhodamine B total protein after 48 h. Particulars: for GI50: Homo sapiens, MDA-MB-231, 48 h. Summed up:
as §1

In assay [8] the test system is PC-3. The assay can be described thus: cells. Details: species or system JFCR39 human cancer cell lines; JFCR39 panel growth inhibition, sulforhodamine B total protein after 48 h. To be noted: for GI50: Homo sapiens, PC-3, 48 h. Summed up: as §1
The mark [9] stands for this setting: 48 h, inhibitor, Log GI50, 48 h.

Where “and” joins values, the source holds several entries; their conditions need not be identical. Equal entries are not always repeated.

By GI50 is commonly meant the concentration at which growth is held to half of that of the control. For `C=C1CC[C@@H]2[C@](C)(CC[C@H]3O[C@H](C=C(C)C)C[C@@]23C)[C@@H]1Cc1c(OC)oc(C)c(C)c1=O` [Compound 22, O-methylated higginsianin A], in assay [1], the “population of ALDH-positive cells” value was “reduced the population of ALDH-positive cells”; the “ALDH-positive cells ave (fold)” value was 0.38 fold; the ALDH-positive cells ave was determined as 0.53%; the “ALDH-positive cells (%)” value is 0.4% and 0.5% and 0.7%. Moreover, the GI50 in assay [2] is 11.9 µM. The concentration for 50% growth inhibition (GI50) in assay [3] was 1.17 µM. This compound also had a GI50 in assay [4] of 2.77 µM. In addition, in assay [5], the GI50 was 8.05 µM.
Turning to `C=C1CCC2C(C)(CC(=O)C=C(C)C)C(O)CCC2(C)C1Cc1c(O)c(C)c(C)oc1=O` (stereo not drawn) [Compound 7], the GI50 in assay [6] is 66.7 µM; in assay [3], 12.2 µM; in assay [7] it was 58.3 µM; in assay [4] it was 35.8 µM; in assay [8], 83 µM; in assay [5], 65.9 µM.
In the case of `C=C1CC[C@@H]2[C@](C)(CC[C@H]3O[C@H](C=C(C)C)C[C@@]23C)[C@@H]1Cc1c(OC)oc(CO)c(C)c1=O` [Compound 20], the GI50 in assay [6] is 11.4 µM; in assay [2], 15.6 µM; in assay [3] it was 10.1 µM; in assay [7] it was 13.1 µM; in assay [4], 11.9 µM; in assay [8] it was 11.4 µM. The compound further gave a GI50 in assay [5] of 17 µM.
With `C=C1CCC2C(C)(CCC=C(C)C)C(O)CCC2(C)C1Cc1c(OC)oc(C)c(C)c1=O` (stereo not drawn) [Compound 11], the “population of ALDH-positive cells” value in assay [1] was “reduced the population of ALDH-positive cells”. Further, in assay [1], the “ALDH-positive cells ave (fold)” value was 0.40 fold. In assay [1], this compound returned an ALDH-positive cells ave of 0.57%. The “ALDH-positive cells (%)” value in assay [1] is 0.4% and 0.9%. The GI50 in assay [2] was 35.8 µM; in assay [7], 22.6 µM; in assay [4], 9.06 µM; in assay [5] it was 19.3 µM.
As to `C=C1CC[C@H]2[C@]3(C)C[C@@H](C=C(C)C)O[C@H]3CC[C@]2(C)[C@@H]1Cc1c(OC)oc(CO)c(C)c1=O` [Compound 17], the GI50 was 12.3 µM in assay [6]; 16.6 µM in assay [2]; 10.4 µM in assay [3]; 13.9 µM in assay [7]; 12.2 µM in assay [4]; 11.1 µM in assay [8]. The same compound had a GI50 in assay [5] of 14.4 µM.
On to `C=C1CCC2C(C)(CC(=O)C=C(C)C)C(O)CCC2(C)C1Cc1c(OC)oc(CO)c(C)c1=O` (stereo not drawn) [Compound 19], for which the GI50 is 34.4 µM in assay [6], 13.6 µM in assay [3], 52.6 µM in assay [4] and 24.1 µM in assay [8].
As to `C=C1CCC2C(C)(CCC=C(C)C)C(O)CCC2(C)C1Cc1c(OC)oc(CO)c(C)c1=O` (stereo not drawn) [Compound 16], the “Log GI50” value in assay [6] (setting [9]) was -5.056 M; in assay [2] (setting [9]), -4.804 M; in assay [3] (inhibitor, Log GI50, 48 h) it was -5.224 M; in assay [7] (setting [9]) it was -4.882 M; in assay [4] (setting [9]), -4.966 M; in assay [8] (setting [9]) it was -5.211 M. Besides, the “Log GI50” value in assay [5] (inhibitor, Log GI50, 48 h) was -4.839 M.
In the case of `C=C1CCC2C(C)(CCC=C(C)C)C(O)CCC2(C)C1Cc1c(OC)oc(C)c(C(=O)OC)c1=O` (stereo not drawn) [Compound 14], the GI50 in assay [6] was 11 µM; in assay [2], 16.1 µM; in assay [3] it was 10.8 µM; in assay [7], 13.2 µM; in assay [4], 11.9 µM; in assay [8], 10.1 µM. Moreover, the GI50 in assay [5] is 14.5 µM.
